Test results published in patent publication US20090300800A1, “D-Amino Acid a Selectable Marker for Barley (Hordeum Vulgare L.) Transformation” (BASF Plant Science GmbH, priority 2005, published 2009).
Several values for one entry are separate records, joined by “and”; a condition that tells them apart may be missing. Equal entries are not always repeated.

Key:
wild-type plants = conditions: plants not expressing D-amino acid oxidase; cited from earlier work
[1] = test system: immature embryos / embryogenic callus from Golden Promise; experiment: Agrobacterium-mediated barley transformation with pRLM167 or pRLM205 (dsdA, dao1, PAT), PAB media, selection on D-Serine or bialaphos; assay type: cell-based, barley (Hordeum vulgare L.)
[2] = test system: immature embryos from spring barley variety Golden Promise; experiment: In vitro germination bioassay of immature embryos on medium with D-serine or D-alanine; assay type: cell-based, barley (Hordeum vulgare L.); conditions: for Immature Embryos (%) germinated in vitro: scored after 14 days; for concentration lethal in the bioassay: immature embryo germination; for concentration above which seedlings were susceptible to the selection: seedlings from embryos isolated without endosperms
Procedure: In order to establish effective concentrations of D-Serine and D-Alanine on inhibiting growth of tissue cultured barley cells, a bioassay system using immature embryos was applied. Immature embryos from spring barley variety Golden Promise 2 mm in length were dissected onto germination PAW-5 hormone free medium with D-serine or D-alanine in range of concentrations between 0 and 5 mM and maintained at 25° C. with a 16 h photoperiod. The number of germinated embryos with well-developed shoots and brunched roots were scored after 14 days.

[3] = test system: immature embryos / embryogenic callus from Golden Promise; experiment: Agrobacterium-mediated barley transformation with pRLM166 (dsdA), PAW media, selection on D-Serine; assay type: cell-based, barley (Hordeum vulgare L.); conditions: construct pRLM166, selection 5 mM D-Serine
[4] = construct pRLM167, selection 5 mM D-Serine or 5 mg/l bialaphos
[5] = 0.5 mM in PAW-5 hormone free medium
[6] = 1 mM in PAW-5 hormone free medium
[7] = 2 mM in PAW-5 hormone free medium
[8] = 5 mM in PAW-5 hormone free medium

Row | Compound | toxicity to wild-type plants (wild-type plants) | TE % (Transformation Efficiency, % of transgenic plants out of the explants) [1, 4] [%] | Immature Embryos (%) germinated in vitro [2, 5] [%] | Immature Embryos (%) germinated in vitro [2, 6] [%] | Immature Embryos (%) germinated in vitro [2, 7] [%] | Immature Embryos (%) germinated in vitro [2, 8] [%] | concentration lethal in the bioassay [2] [mM] | concentration above which seedlings were susceptible to the selection [2] | TE % (Transformation Efficiency, % of transgenic plants out of the explants) ([1]; construct pRLM205 (dao1), selection 5 mM D-Serine) [%] | TE % (Transformation Efficiency, % of transgenic plants out of the explants) [3]
1 | CC(C)[C@@H](N)C(=O)O [D-valine] | not toxic to wild-type plants | – | – | – | – | – | – | – | – | –
2 | C[C@H](NC(=O)[C@H](C)NC(=O)[C@@H](N)CCP(C)(=O)O)C(=O)O [bialaphos] | – | 3.4 | – | – | – | – | – | – | – | –
3 | C[C@@H](N)C(=O)O [D-alanine] | highly phytoptoxic to plants | – | 37 | 0 | 0 | 0 | 1 | > 1 mM | – | –
4 | N[C@H](CO)C(=O)O [D-serine] | highly phytoptoxic to plants | 4.6 | 49 | 17 | 0 | 0 | 2 | higher than 2 mM | 3.6 | 2.2% and 2.1%
5 | CC[C@@H](C)[C@@H](N)C(=O)O [D-isoleucine] | not toxic to wild-type plants | – | – | – | – | – | – | – | – | –
